Experimental data taken from ChEMBL document CHEMBL1221387, “Prenylflavonoids from Glycyrrhiza uralensis and their protein tyrosine phosphatase-1B inhibitory activities” (Bioorg Med Chem Lett, 2010).
pIC50: −log10 of the molar value.

Target: T1, Tyrosine-protein phosphatase non-receptor type 1 (Homo sapiens, UniProt P18031)
T1 sequence (P18031 whole entry): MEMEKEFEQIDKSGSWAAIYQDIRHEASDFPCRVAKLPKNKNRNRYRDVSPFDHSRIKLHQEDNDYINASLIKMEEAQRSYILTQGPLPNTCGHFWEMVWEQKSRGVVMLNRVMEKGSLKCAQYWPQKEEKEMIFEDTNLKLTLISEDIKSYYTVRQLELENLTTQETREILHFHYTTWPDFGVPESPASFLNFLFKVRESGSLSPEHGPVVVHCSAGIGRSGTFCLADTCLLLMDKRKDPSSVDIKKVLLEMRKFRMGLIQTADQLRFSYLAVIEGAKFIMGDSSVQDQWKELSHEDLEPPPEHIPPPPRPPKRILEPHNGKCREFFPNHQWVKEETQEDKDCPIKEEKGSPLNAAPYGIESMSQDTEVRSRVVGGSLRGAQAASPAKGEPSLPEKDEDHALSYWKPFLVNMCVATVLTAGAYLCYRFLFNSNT
Experiment: Inhibition of human recombinant PTP1B assessed as p-nitorphenol production after 30 mins

pIC50 | Compound
3.74 | COc1c(CC=C(C)C)c(O)cc2oc(=O)c(-c3ccc(O)cc3O)cc12 [GLYCYCOUMARIN]
4.55 | COc1cc(O)cc2occ(-c3cc(O)c(O)c(CC=C(C)C)c3)c(=O)c12 [GLISOFLAVONE]
4.59 | COc1c(CC=C(C)C)c(O)cc(O)c1-c1oc2cc(O)ccc2c1C [GLYCYBENZOFURAN]
5.36 | CCCCCCCCCCCCCCCC(=O)C1=C(O)[C@@H](CO)OC1=O
4.26 | CC(C)=CCc1cc2c(=O)cc(-c3ccc(O)cc3)oc2cc1O [LICOFLAVANONE A]
4.15 | COc1c(CC=C(C)C)c(O)cc2oc(-c3ccc(O)cc3O)cc12 [LICOCOUMARONE]
4.23 | CC(C)=CCc1cc(-c2coc3cc(O)cc(O)c3c2=O)cc(O)c1O [GLYCYRRHISOFLAVONE]
